Reference: US6162810A, “Inadone and tetralone compounds for inhibiting cell proliferation” (The Regents of the University of California, priority 1998, dated 2000)
Read-outs that look alike come from different tables or passages of the source.

Key:
[1] = tested on: proliferating cells; test: Ability of further compounds to kill proliferating cells (average); assay type: cell-based
Description: (§1) (B) Similarly, compounds of the invention were tested for their ability to kill CEM WT, CEM AB9228, MOLT-4, Jurkat, NALL-1, WI-L2, K562, and HL-60 cells.
(C) Proceeding as described above, further compounds were tested for their ability to kill proliferating cells.

[2] = tested on: CEM WT, CEM AB9228, MOLT-4, Jurkat, NALL-1, WI-L2, K562, and HL-60 cells; test: Cytotoxicity to various proliferating cell lines (average); assay type: cell-based, human
Description: as §1

[3] = average TC50, proliferating cells, read-out: TC50 (the source's name)
[4] = Homo sapiens, average TC50 over various proliferating cell lines, read-out: TC50 (the source's name)
[5] = average TC50 over various proliferating cell lines, read-out: TC50 (the source's name)

Compound	CC50 [1, 3] [µM]	CC50 [2, 4] [µM]	also measured
COc1cc2c(cc1OC)C(=O)C(=Cc1cccc(OC)c1OC)CC2 [6,7-dimethoxy-2-(2',3'-dimethoxyphenylmethylene)-1-tetralone]	> 50	> 50	–
COc1cc2c(cc1OC)C(=O)C(=Cc1cc(OC)c(OC)c(OC)c1)CC2 [6,7-dimethoxy-2-(3',4',5'-trimethoxyphenylmethylene)-1-tetralone]	–	> 50	–
COc1cc2c(cc1OC)C(=O)/C(=C/c1cc(C)c(O)c(C)c1)C2 [5,6-dimethoxy-2-(3',5'-dimethyl-4'-hydroxyphenylmethylene)-1-indanone]	–	–	CC50 ([1]; read-out: TC50): 0.0065 µM; CC50 ([2]; Homo sapiens, read-out: TC50): 0.017 µM
COc1cc2c(cc1OC)C(=O)C(=Cc1cc(C)c(OC(=O)CCC(=O)O)c(C)c1)C2 [5,6-dimethoxy-2-(3',5'-dimethyl-4'-O-succinylphenylmethylene)-1-indanone]	–	1	–
COc1cc(C=C2Cc3cc(OC)ccc3C2=O)cc(OC)c1 [5-methoxy-2-(3',5'-dimethoxyphenylmethylene)-1-indanone]	> 50	–	–
O=C1C(=Cc2cc(Cl)cc(Cl)c2)Cc2cc(O)c(O)cc21 [5,6-dihydroxy-2-(3',5'-dichlorophenylmethylene)-1-indanone]	–	30	–
COc1cc2c(cc1OC)C(=O)C(=Cc1c(Cl)cc(-c3ccncc3)cc1Cl)C2 [5,6-dimethoxy-2-(2',6'-dichloro-4'-(pyridin-4-yl)phenylmethylene)-1-indanone]	–	40	–
COc1cc2c(c(NC(=O)C(=O)O)c1OC)C(=O)C(=Cc1cc(C)c(O)c(C)c1)C2 [5,6-dimethoxy-7-oxalylamino-2-(3',5'-dimethyl-4'-hydroxyphenylmethylene)-1-indanone]	0.15	0.004	–
COc1cc2c(cc1OC)C(=O)C(=Cc1cc(C)ccc1C)CC2 [6,7-dimethoxy-2-(2',5'-dimethylphenylmethylene)-1-tetralone]	–	5	–
6,7-dimethoxy-2-(4'-(pyridine-N-oxide)phenylmethylene)-1-tetralone	–	–	CC50 [2, 5]: > 50 µM
O=C1C(=Cc2cc(O)c(O)c(O)c2)CCc2cc(O)c(O)cc21 [6,7-dihydroxy-2-(3',4',5'-trihydroxyphenylmethylene)-1-tetralone]	–	43	–
COc1cc2c(cc1OC)C(=O)C(=Cc1cc(F)cc(F)c1)C2 [5,6-dimethoxy-2-(3',5'-difluorophenylmethylene)-1-indanone]	19	19	–
COc1cc(O)c(C=C2CCc3cc(OC)c(OC)cc3C2=O)c(OC)c1 [6,7-dimethoxy-2-(2',4'-dimethoxy-6'-hydroxyphenylmethylene)-1-tetralone]	–	10	–
COc1ccc(OC)c(C=C2CCc3cc(OC)c(OC)cc3C2=O)c1 [6,7-dimethoxy-2-(2',5'-dimethoxyphenylmethylene)-1-tetralone]	–	11	–
COc1cccc(C=C2CCc3cc(OC)c(OC)cc3C2=O)c1 [6,7-dimethoxy-2-(3'-methoxyphenylmethylene)-1-tetralone]	5	–	–
5,6-dimethoxy-2-(3',5'-dimethyl-4'-phosphonoacetylphenylmethylene)-1-indanone	–	–	CC50 [2, 5]: 0.007 µM
COc1cccc2c1C(=O)C(=Cc1cc(C)c(O)c(C)c1)C2 [7-methoxy-2-(3',5'-dimethyl-4'-hydroxyphenylmethylene)-1-indanone]	–	51	–
COc1cc2c(cc1OC)C(=O)C(=Cc1ccc(O)cc1)CC2 [6,7-dimethoxy-2-(4'-hydroxyphenylmethylene)-1-tetralone]	30	30	–
O=C1C(=Cc2cc(Cl)cc(Cl)c2)Cc2ccccc21 [2-(3',5'-dichlorophenylmethylene)-1-indanone]	30	–	–
COc1cc2c(cc1OC)C(=O)C(=CC1(O)CC(OC)CC(OC)C1)C2 (centres unmarked) [5,6-dimethoxy-2-(3',5'-dimethoxy-1'-hydroxycyclohexylmethylene)-1-indanone]	–	2	–
COc1cc(C=C2Cc3cc4c(cc3C2=O)OCO4)cc(OC)c1 [5,6-methylenedioxy-2-(3',5'-dimethoxyphenylmethylene)-1-indanone]	–	> 50	–
COc1cc2c(c(N)c1OC)C(=O)C(=Cc1cc(C)c(O)c(C)c1)C2 [5,6-dimethoxy-7-amino-2-(3',5'-dimethyl-4'-hydroxyphenylmethylene)-1-indanone]	0.0008	0.005	–
COc1ccc(C=C2CCc3cc(OC)c(OC)cc3C2=O)cc1 [6,7-dimethoxy-2-(4'-methoxyphenylmethylene)-1-tetralone]	> 50	> 50	–
COc1cc2c(cc1OC)C(=O)C(=Cc1cc(C)c(OC(=O)CP(=O)(O)O)c(C)c1)C2 [5,6-dimethoxy-2-(3',5'-dimethyl-4'-phosphonoacetoxyphenylmethylene)-1-indanone]	11.5	–	–
COc1cc2c(c(NC(=O)C=O)c1OC)C(=O)C(=Cc1cc(C)c(O)c(C)c1)C2 [5,6-dimethoxy-7-(NHCOCOH)-2-(3',5'-dimethyl-4'-hydroxyphenylmethylene)-1-indanone]	0.0015	–	–

Compound	CC50 [1, 3] [µM]	CC50 [2, 4] [µM]	also measured
COC(=O)C(=O)Nc1c(OC)c(OC)cc2c1C(=O)C(=Cc1cc(C)c(O)c(C)c1)C2 [5,6-dimethoxy-7-methoxalylamino-2-(3',5'-dimethyl-4'-hydroxyphenylmethylene)-1-indanone]	0.2	–	–
COc1cc2c(cc1OC)C(=O)C(=Cc1cccc([N+](=O)[O-])c1)CC2 [6,7-dimethoxy-2-(3'-nitrophenylmethylene)-1-tetralone]	9	–	–
COc1cc2c(cc1OC)C(=O)C(=Cc1c(O)cc(I)cc1I)C2 [5,6-dimethoxy-2-(2'-hydroxy-4',6'-diiodophenylmethylene)-1-indanone]	–	18	–
COc1cc2c(cc1OC)C(=O)C(=Cc1cc(Cl)cc(Cl)c1)CC2 [6,7-dimethoxy-2-(3',5'-dichlorophenylmethylene)-1-tetralone]	7	–	–
COc1ccc(C=C2CCc3cc(OC)c(OC)cc3C2=O)cc1OC [6,7-dimethoxy-2-(3',4'-dimethoxyphenylmethylene)-1-tetralone]	> 50	> 50	–
COc1cc2c(cc1OC)C(=O)C(=Cc1c(OC)cccc1OC)CC2 [6,7-dimethoxy-2-(2',6'-dimethoxyphenylmethylene)-1-tetralone]	> 50	–	–
COc1cc2c(cc1OC)C(=O)C(=Cc1cc(OC)c(O)c(OC)c1)C2 [5,6-dimethoxy-2-(3',5'-dimethoxy-4'-hydroxyphenylmethylene)-1-indanone]	> 50	> 50	–
O=C1C(=Cc2cccc(O)c2O)CCc2cc(O)c(O)cc21 [6,7-dihydroxy-2-(2',3'-dihydroxyphenylmethylene)-1-tetralone]	–	> 50	–
COc1cc2c(cc1OC)C(=O)C(=Cc1cc(C)c(OC(=O)CCC(=O)O)c(C)c1)C2 [5,6-dimethoxy-2-(3',5'-dimethyl-4'-succinophenylmethylene)-1-indanone]	0.07	–	–
COc1ccc(C=C2CCc3cc(OC)c(OC)cc3C2=O)c(OC)c1 [6,7-dimethoxy-2-(2',4'-dimethoxyphenylmethylene)-1-tetralone]	> 50	–	–
COc1cc2c(cc1OC)C(=O)C(=Cc1cc(OC(F)(F)F)cc(OC(F)(F)F)c1)C2 [5,6-dimethoxy-2-(3',5'-ditrifluoromethoxyphenylmethylene)-1-indanone]	–	> 100	–
COc1cc2c(cc1OC)C(=O)C(=Cc1c(C)cccc1C)CC2 [6,7-dimethoxy-2-(2',6'-dimethylphenylmethylene)-1-tetralone]	–	> 50	–
COc1ccccc1C=C1CCc2cc(OC)c(OC)cc2C1=O [6,7-dimethoxy-2-(2'-methoxyphenylmethylene)-1-tetralone]	> 50	–	–
COc1ccc2c(c1)C(=O)C(=Cc1cc(C)c(O)c(C)c1)C2 [6-methoxy-2-(3',5'-dimethyl-4'-hydroxyphenylmethylene)-1-indanone]	–	> 50	–
COc1cc2c(cc1OC)C(=O)C(=Cc1cc(OC)c(O)c(OC)c1)CC2 [6,7-dimethoxy-2-(3',5'-dimethoxy-4'-hydroxyphenylmethylene)-1-tetralone]	6	–	–
COc1cc2c(cc1OC)C(=O)C(=Cc1cc(F)cc(F)c1)C2 [5,6-dimethoxy-2-(3',5'-difluorophenylmethylene)-1-indanone (]	–	–	CC50 [2, 5]: 26 µM
COc1cc2c(cc1OC)C(=O)C(=Cc1cc(I)cc(I)c1O)C2 [5,6-dimethoxy-2-(2'-hydroxy-3',5'-diiodophenylmethylene)-1-indanone]	12.5	–	–
COc1cc2c(cc1OC)C(=O)C(=Cc1cccc(Cl)c1)CC2 [6,7-dimethoxy-2-(3'-chlorophenylmethylene)-1-tetralone]	9	–	–
COc1cc2c(cc1OC)C(=O)C(=Cc1ccc(N)cc1)CC2 [6,7-dimethoxy-2-(4'-aminophenylmethylene)-1-tetralone]	–	> 50	–
COc1cc2c(cc1OC)C(=O)C(=Cc1cc(C)c([N+](=O)[O-])c(C)c1)C2 [5,6-dimethoxy-2-(3',5'-dimethyl-4'-nitrophenylmethylene)-1-indanone]	> 50	–	–
COc1cc2c(cc1OC)C(=O)C(=Cc1cc(C(F)(F)F)cc(C(F)(F)F)c1)C2 [5,6-dimethoxy-2-(3',5'-ditrifluoromethylphenylmethylene)-1-indanone]	> 50	–	–
COc1cc2c(cc1OC)C(=O)C(=Cc1ccc(O)c(C(=O)O)c1)CC2 [6,7-dimethoxy-2-(3'-hydrocarboxy-4'-hydroxyphenylmethylene)-1-tetralone]	–	> 50	–
COc1cc(C=C2Cc3cc(C)c(C)cc3C2=O)cc(OC)c1 [5,6-dimethyl-2-(3',5'-dimethoxyphenylmethylene)-1-indanone]	> 50	–	–
COc1cc2c(cc1OC)C(=O)C(=Cc1cc(C)cc(C)c1)CC2 [6,7-dimethoxy-2-(3',5'-dimethylphenylmethylene)-1-tetralone]	–	4	–
COc1cc2c(cc1OC)C(=O)C(=Cc1cc(C)c(OC(C)=O)c(C)c1)C2 [5,6-dimethoxy-2-(3',5'-dimethyl-4'-acetoxyphenylmethylene)-1-indanone]	0.4	–	–
